Data published in ChEMBL document CHEMBL4715697, “Synthesis and biological activity of benzamide DNA minor groove binders” (2016).

Columns and labels:
Assay type in all cases: functional
T47D = assay: Growth inhibition of human T47D cells assessed as cell growth at 1 uM incubated for 48 hrs by sulforhodamine B assay relative to control; conditions: read-out: Activity
SW-620 [1] = assay: Growth inhibition of human SW-620 cells assessed as cell growth at 0.1 uM incubated for 48 hrs by sulforhodamine B assay relative to control; conditions: read-out: Activity
LOX IMVI [2] = assay: Growth inhibition of human LOX IMVI cells assessed as cell growth at 100 uM incubated for 48 hrs by sulforhodamine B assay relative to control; conditions: read-out: Activity
SF-295 = assay: Growth inhibition of human SF-295 cells assessed as cell growth at 0.01 uM incubated for 48 hrs by sulforhodamine B assay relative to control; conditions: read-out: Activity
U-251 = assay: Growth inhibition of human U-251 cells incubated for 48 hrs by sulforhodamine B assay
LOX IMVI [3] = assay: Growth inhibition of human LOX IMVI cells assessed as cell growth at 0.01 uM incubated for 48 hrs by sulforhodamine B assay relative to control; conditions: read-out: Activity
RXF 393 = assay: Growth inhibition of human RXF 393 cells assessed as cell growth at 0.1 uM incubated for 48 hrs by sulforhodamine B assay relative to control; conditions: read-out: Activity
UACC-257 [4] = assay: Growth inhibition of human UACC-257 cells assessed as cell growth at 0.01 uM incubated for 48 hrs by sulforhodamine B assay relative to control; conditions: read-out: Activity
SR = assay: Growth inhibition of human SR cells assessed as cell growth at 0.1 uM incubated for 48 hrs by sulforhodamine B assay relative to control; conditions: read-out: Activity
MDA-MB-231 = assay: Growth inhibition of human MDA-MB-231 cells incubated for 48 hrs by sulforhodamine B assay
RPMI-8226 = assay: Growth inhibition of human RPMI-8226 cells assessed as cell growth at 0.01 uM incubated for 48 hrs by sulforhodamine B assay relative to control; conditions: read-out: Activity
CCRF-CEM = assay: Growth inhibition of human CCRF-CEM cells assessed as cell growth at 0.1 uM incubated for 48 hrs by sulforhodamine B assay relative to control; conditions: read-out: Activity
EKVX = assay: Growth inhibition of human EKVX cells incubated for 48 hrs by sulforhodamine B assay
OVCAR-5 [5] = assay: Growth inhibition of human OVCAR-5 cells assessed as cell growth at 1 uM incubated for 48 hrs by sulforhodamine B assay relative to control; conditions: read-out: Activity
Malme-3M = assay: Growth inhibition of human Malme-3M cells assessed as cell growth at 1 uM incubated for 48 hrs by sulforhodamine B assay relative to control; conditions: read-out: Activity
SN12C [6] = assay: Growth inhibition of human SN12C cells assessed as cell growth at 100 uM incubated for 48 hrs by sulforhodamine B assay relative to control; conditions: read-out: Activity
Hs-578T = assay: Growth inhibition of human Hs-578T cells assessed as cell growth at 100 uM incubated for 48 hrs by sulforhodamine B assay relative to control; conditions: read-out: Activity
HOP-62 = assay: Growth inhibition of human HOP-62 cells assessed as cell growth at 100 uM incubated for 48 hrs by sulforhodamine B assay relative to control; conditions: read-out: Activity
HT-29 [7] = assay: Growth inhibition of human HT-29 cells assessed as cell growth at 0.1 uM incubated for 48 hrs by sulforhodamine B assay relative to control; conditions: read-out: Activity
A549 [8] = assay: Growth inhibition of human A549/ATCC cells incubated for 48 hrs by sulforhodamine B assay
UACC-62 = assay: Growth inhibition of human UACC-62 cells assessed as cell growth at 1 uM incubated for 48 hrs by sulforhodamine B assay relative to control; conditions: read-out: Activity
SN12C [9] = assay: Growth inhibition of human SN12C cells assessed as cell growth at 0.01 uM incubated for 48 hrs by sulforhodamine B assay relative to control; conditions: read-out: Activity
HCT-15 = assay: Growth inhibition of human HCT-15 cells assessed as cell growth at 0.1 uM incubated for 48 hrs by sulforhodamine B assay relative to control; conditions: read-out: Activity
MDA-MB-468 = assay: Growth inhibition of human MDA-MB-468 cells assessed as cell growth at 1 uM incubated for 48 hrs by sulforhodamine B assay relative to control; conditions: read-out: Activity
MCF7 = assay: Growth inhibition of human MCF7 cells assessed as cell growth at 1 uM incubated for 48 hrs by sulforhodamine B assay relative to control; conditions: read-out: Activity
MDA-MB-435 = assay: Growth inhibition of human MDA-MB-435 cells assessed as cell growth at 1 uM incubated for 48 hrs by sulforhodamine B assay relative to control; conditions: read-out: Activity
A549 [10] = assay: Growth inhibition of human A549/ATCC cells assessed as cell growth at 0.01 uM incubated for 48 hrs by sulforhodamine B assay relative to control; conditions: read-out: Activity
OVCAR-5 [11] = assay: Growth inhibition of human OVCAR-5 cells assessed as cell growth at 0.1 uM incubated for 48 hrs by sulforhodamine B assay relative to control; conditions: read-out: Activity
OVCAR-4 = assay: Growth inhibition of human OVCAR-4 cells assessed as cell growth at 100 uM incubated for 48 hrs by sulforhodamine B assay relative to control; conditions: read-out: Activity
UACC-257 [12] = assay: Growth inhibition of human UACC-257 cells assessed as cell growth at 0.1 uM incubated for 48 hrs by sulforhodamine B assay relative to control; conditions: read-out: Activity
SK-MEL-28 = assay: Growth inhibition of human SK-MEL-28 cells assessed as cell growth at 0.1 uM incubated for 48 hrs by sulforhodamine B assay relative to control; conditions: read-out: Activity
HT-29 [13] = assay: Growth inhibition of human HT-29 cells assessed as cell growth at 0.01 uM incubated for 48 hrs by sulforhodamine B assay relative to control; conditions: read-out: Activity
HCT-116 = assay: Growth inhibition of human HCT-116 cells assessed as cell growth at 100 uM incubated for 48 hrs by sulforhodamine B assay relative to control; conditions: read-out: Activity
SW-620 [14] = assay: Growth inhibition of human SW-620 cells assessed as cell growth at 1 uM incubated for 48 hrs by sulforhodamine B assay relative to control; conditions: read-out: Activity
OVCAR-8 = assay: Growth inhibition of human OVCAR-8 cells assessed as cell growth at 0.1 uM incubated for 48 hrs by sulforhodamine B assay relative to control; conditions: read-out: Activity
NCI-H23 = assay: Growth inhibition of human NCI-H23 cells assessed as cell growth at 0.01 uM incubated for 48 hrs by sulforhodamine B assay relative to control; conditions: read-out: Activity
SK-MEL-2 = assay: Growth inhibition of human SK-MEL-2 cells assessed as cell growth at 100 uM incubated for 48 hrs by sulforhodamine B assay relative to control; conditions: read-out: Activity
[15] = read-out: LC50 (the source's name)
[16] = read-out: pLC50 (the source's name) (converted)

CC(=O)Nc1cc(CO[Si](C)(C)C(C)(C)C)cc(NC(=O)c2ccc(C(=O)Nc3cccc(NC(=O)CCCN(C)C)c3)cc2)c1
growth at 1 µM (T47D): 107% | growth at 0.1 µM (SW-620 [1]): 100% | growth at 100 µM (LOX IMVI [2]): 84% | growth at 0.01 µM (SF-295): 98% | GI50 (U-251; read-out: GI50): > 75 µM | CC50 (U-251; [15]): > 75 µM | TGI (U-251; read-out: TGI): > 75 µM | GI50 (U-251; read-out: pGI50 (converted)): > 75.9 µM | CC50 (U-251; [16]): > 75.9 µM | TGI (U-251; read-out: pTGI): > 75.9 µM | growth at 0.01 µM (LOX IMVI [3]): 101% | growth at 0.1 µM (RXF 393): 102% | growth at 0.01 µM (UACC-257 [4]): 94% | growth at 0.1 µM (SR): 103% | GI50 (MDA-MB-231; read-out: GI50): > 75 µM | CC50 (MDA-MB-231; [15]): > 75 µM | TGI (MDA-MB-231; read-out: TGI): > 75 µM | GI50 (MDA-MB-231; read-out: pGI50 (converted)): > 75.9 µM | CC50 (MDA-MB-231; [16]): > 75.9 µM | TGI (MDA-MB-231; read-out: pTGI): > 75.9 µM | growth at 0.01 µM (RPMI-8226): 95% | growth at 0.1 µM (CCRF-CEM): 98% | GI50 (EKVX; read-out: GI50): > 75 µM | LC50 (EKVX; read-out: LC50): > 75 µM | TGI (EKVX; read-out: TGI): > 75 µM | GI50 (EKVX; read-out: pGI50 (converted)): > 75.9 µM | LC50 (EKVX; read-out: pLC50 (converted)): > 75.9 µM | TGI (EKVX; read-out: pTGI): > 75.9 µM | growth at 1 µM (OVCAR-5 [5]): 89% | growth at 1 µM (Malme-3M): 94% | growth at 100 µM (SN12C [6]): 91% | growth at 100 µM (Hs-578T): 89% | growth at 100 µM (HOP-62): 87% | growth at 0.1 µM (HT-29 [7]): 103% | GI50 (A549 [8]; read-out: GI50): > 75 µM | CC50 (A549 [8]; [15]): > 75 µM | TGI (A549 [8]; read-out: TGI): > 75 µM | GI50 (A549 [8]; read-out: pGI50 (converted)): > 75.9 µM | CC50 (A549 [8]; [16]): > 75.9 µM | TGI (A549 [8]; read-out: pTGI): > 75.9 µM | growth at 1 µM (UACC-62): 99% | growth at 0.01 µM (SN12C [9]): 96% | growth at 0.1 µM (HCT-15): 91% | growth at 1 µM (MDA-MB-468): 90% | growth at 1 µM (MCF7): 101% | growth at 1 µM (MDA-MB-435): 94% | growth at 0.01 µM (A549 [10]): 99% | growth at 0.1 µM (OVCAR-5 [11]): 93% | growth at 100 µM (OVCAR-4): 78% | growth at 0.1 µM (UACC-257 [12]): 90% | growth at 0.1 µM (SK-MEL-28): 95% | growth at 0.01 µM (HT-29 [13]): 102% | growth at 100 µM (HCT-116): 85% | growth at 1 µM (SW-620 [14]): 100% | growth at 0.1 µM (OVCAR-8): 97% | growth at 0.01 µM (NCI-H23): 101% | growth at 100 µM (SK-MEL-2): 87%

CC(=O)Nc1cc(CCl)cc(NC(=O)c2ccc(C(=O)Nc3cccc(NC(=O)CCCN(C)C)c3)cc2)c1
growth at 1 µM (T47D): 94% | growth at 0.1 µM (SW-620 [1]): 107% | growth at 100 µM (LOX IMVI [2]): 75% | growth at 0.01 µM (SF-295): 74% | GI50 (U-251; read-out: GI50): > 100 µM | CC50 (U-251; [15]): > 100 µM | TGI (U-251; read-out: TGI): > 100 µM | GI50 (U-251; read-out: pGI50 (converted)): > 100 µM | CC50 (U-251; [16]): > 100 µM | TGI (U-251; read-out: pTGI): > 100 µM | growth at 0.01 µM (LOX IMVI [3]): 96% | growth at 0.1 µM (RXF 393): 94% | growth at 0.01 µM (UACC-257 [4]): 97% | growth at 0.1 µM (SR): 107% | GI50 (MDA-MB-231; read-out: GI50): > 100 µM | CC50 (MDA-MB-231; [15]): > 100 µM | TGI (MDA-MB-231; read-out: TGI): > 100 µM | GI50 (MDA-MB-231; read-out: pGI50 (converted)): > 100 µM | CC50 (MDA-MB-231; [16]): > 100 µM | TGI (MDA-MB-231; read-out: pTGI): > 100 µM | growth at 0.01 µM (RPMI-8226): 110% | growth at 0.1 µM (CCRF-CEM): 113% | GI50 (EKVX; read-out: GI50): > 100 µM | LC50 (EKVX; read-out: LC50): > 100 µM | TGI (EKVX; read-out: TGI): > 100 µM | GI50 (EKVX; read-out: pGI50 (converted)): > 100 µM | LC50 (EKVX; read-out: pLC50 (converted)): > 100 µM | TGI (EKVX; read-out: pTGI): > 100 µM | growth at 1 µM (OVCAR-5 [5]): 83% | growth at 1 µM (Malme-3M): 97% | growth at 100 µM (SN12C [6]): 102% | growth at 100 µM (Hs-578T): 107% | growth at 100 µM (HOP-62): 95% | growth at 0.1 µM (HT-29 [7]): 101% | GI50 (A549 [8]; read-out: GI50): > 100 µM | CC50 (A549 [8]; [15]): > 100 µM | TGI (A549 [8]; read-out: TGI): > 100 µM | GI50 (A549 [8]; read-out: pGI50 (converted)): > 100 µM | CC50 (A549 [8]; [16]): > 100 µM | TGI (A549 [8]; read-out: pTGI): > 100 µM | growth at 1 µM (UACC-62): 102% | growth at 0.01 µM (SN12C [9]): 104% | growth at 0.1 µM (HCT-15): 88% | growth at 1 µM (MDA-MB-468): 86% | growth at 1 µM (MCF7): 81% | growth at 1 µM (MDA-MB-435): 97% | growth at 0.01 µM (A549 [10]): 104% | growth at 0.1 µM (OVCAR-5 [11]): 88% | growth at 100 µM (OVCAR-4): 89% | growth at 0.1 µM (UACC-257 [12]): 93% | growth at 0.1 µM (SK-MEL-28): 91% | growth at 0.01 µM (HT-29 [13]): 103% | growth at 100 µM (HCT-116): 82% | growth at 1 µM (SW-620 [14]): 107% | growth at 0.1 µM (OVCAR-8): 97% | growth at 0.01 µM (NCI-H23): 96% | growth at 100 µM (SK-MEL-2): 116%
